“And” between values parts separate entries of the source, which are not always exact repeats. Identical values can stand only once.
Legend:
Assay in all cases: Histone peptide microarray
Assay type in all cases: binding, human
[1] = test system: PHF13; settings: PHF13, GST-tagged; arrays performed twice, n of 4
In short: (§1)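 A peptide microarray holding 293 synthetic histone peptides with individual or combinatorial modifications was probed with each GST-PHD protein at 0.5 μM. Values represent mean intensity (±SD) from four replicates.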

[2] = test system: ING5; settings: ING5, GST-tagged; arrays performed twice, n of 4
In short: as §1

[3] = test system: KDM7A; settings: KDM7A, GST-tagged; arrays performed twice, n of 4
In short: as §1

[4] = test system: KDM5A (1); settings: KDM5A (1), GST-tagged; arrays performed twice, n of 4
In short: as §1

[5] = test system: TRIM66 (PB); settings: TRIM66 (PB), GST-tagged; arrays performed twice, n of 4
In short: as §1

[6] = test system: ING3; settings: ING3, GST-tagged; arrays performed twice, n of 4
In short: as §1

[7] = test system: DIDO1; settings: DIDO1, GST-tagged; arrays performed twice, n of 4
In short: as §1

[8] = test system: BAZ2B; settings: BAZ2B, GST-tagged; arrays performed twice, n of 4
In short: as §1

[9] = test system: KDM4C (TTP); settings: KDM4C (TTP), GST-tagged; arrays performed twice, n of 4
In short: as §1

[10] = test system: ING2; settings: ING2, GST-tagged; arrays performed twice, n of 4
In short: as §1

[11] = test system: PHRF1 (RP); settings: PHRF1 (RP), GST-tagged; arrays performed twice, n of 4
In short: as §1

[12] = test system: KDM5B (1); settings: KDM5B (1), GST-tagged; arrays performed twice, n of 4
In short: as §1

[13] = test system: ING4; settings: ING4, GST-tagged; arrays performed twice, n of 4
In short: as §1

[14] = test system: MLL5; settings: MLL5, GST-tagged; arrays performed twice, n of 4
In short: as §1

[15] = test system: CHD4 (PPCC); settings: CHD4 (PPCC), GST-tagged; arrays performed twice, n of 4
In short: as §1

[16] = test system: PHF2; settings: PHF2, GST-tagged; arrays performed twice, n of 4
In short: as §1

[17] = test system: KDM5A (3); settings: KDM5A (3), GST-tagged; arrays performed twice, n of 4
In short: as §1

[18] = test system: PHF21A; settings: PHF21A, GST-tagged; arrays performed twice, n of 4
In short: as §1

[19] = test system: KDM5B (3); settings: KDM5B (3), GST-tagged; arrays performed twice, n of 4
In short: as §1

[20] = test system: ING1; settings: ING1, GST-tagged; arrays performed twice, n of 4
In short: as §1

[21] = test system: PHF8; settings: PHF8, GST-tagged; arrays performed twice, n of 4
In short: as §1

[22] = test system: CHD5 (PCC); settings: CHD5 (PCC), GST-tagged; arrays performed twice, n of 4
In short: as §1

[23] = test system: TAF3; settings: TAF3, GST-tagged; arrays performed twice, n of 4
In short: as §1

[24] = test system: MORC3 (CW); settings: MORC3 (CW), GST-tagged; arrays performed twice, n of 4
In short: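 Steps: express and purify GST-tagged PHD reader; incubate 0.5 μM protein on a peptide microarray (293 histone peptides, single or combined PTMs) following an optimized protocol; average signal across 4 replicates.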

[25] = test system: AIRE (PP); settings: AIRE (PP), GST-tagged; arrays performed twice, n of 4
In short: as §1

[26] = test system: DPF2 (PPC2W2); settings: DPF2 (PPC2W2), GST-tagged; arrays performed twice, n of 4
In short: as §1

[27] = test system: SP140L; settings: SP140L, GST-tagged; arrays performed twice, n of 4
In short: as §1

[28] = test system: CHD5 (PPCC); settings: CHD5 (PPCC), GST-tagged; arrays performed twice, n of 4
In short: as §1

[29] = test system: RAG2; settings: RAG2, GST-tagged; arrays performed twice, n of 4
In short: as §1

[30] = test system: BPTF (PB); settings: BPTF (PB), GST-tagged; arrays performed twice, n of 4
In short: as §1

[31] = test system: PHF23; settings: PHF23, GST-tagged; arrays performed twice, n of 4
In short: as §1

| Substance | Array Heatmap value (peptide array binding signal) [1] | Array Heatmap value (peptide array binding signal) [2] | Array Heatmap value (peptide array binding signal) [3] | Array Heatmap value (peptide array binding signal) [4] | Array Heatmap value (peptide array binding signal) [5] | Array Heatmap value (peptide array binding signal) [6] | Array Heatmap value (peptide array binding signal) [7] | Array Heatmap value (peptide array binding signal) [8] | Array Heatmap value (peptide array binding signal) [9] | Array Heatmap value (peptide array binding signal) [10] | Array Heatmap value (peptide array binding signal) [11] | Array Heatmap value (peptide array binding signal) [12] | Array Heatmap value (peptide array binding signal) [13] | Array Heatmap value (peptide array binding signal) [14] | Array Heatmap value (peptide array binding signal) [15] | Array Heatmap value (peptide array binding signal) [16] | Array Heatmap value (peptide array binding signal) [17] | Array Heatmap value (peptide array binding signal) [18] | Array Heatmap value (peptide array binding signal) [19] | Array Heatmap value (peptide array binding signal) [20] | further results |
| --- | --- | --- | --- | --- | --- | --- | --- | --- | --- | --- | --- | --- | --- | --- | --- | --- | --- | --- | --- | --- | --- |
| H3K27acK36me1 (21-44): H3 21-44 | 0.7148 | 0.4437 | 0.3972 | 0.5728 | 0.6284 | 0.5657 | 0.819 | 0.5322 | 0.5731 | 0.6555 | 0.5526 | 0.7243 | 0.5489 | 0.6075 | 0.6736 | 0.6877 | 0.5161 | 0.5223 | 0.4928 | 0.6463 | Array Heatmap value (peptide array binding signal) [21]: 0.4123; Array Heatmap value (peptide array binding signal) [22]: 0.8019; Array Heatmap value (peptide array binding signal) [23]: 0.3058; Array Heatmap value (peptide array binding signal) [24]: 0.41; Array Heatmap value (peptide array binding signal) [25]: 0.4899; Array Heatmap value (peptide array binding signal) [26]: 0.7332; Array Heatmap value (peptide array binding signal) [27]: 0.402; Array Heatmap value (peptide array binding signal) [28]: 0.6612; Array Heatmap value (peptide array binding signal) [29]: 0.2901; Array Heatmap value (peptide array binding signal) [30]: 0.4151; Array Heatmap value (peptide array binding signal) [31]: 0.594 |
| H3K27acK36me2 (21-44): H3 21-44 | 0.6217 and 0.5883 | 0.3615 and 0.3253 | 0.3413 and 0.3447 | 0.4783 and 0.4109 | 0.5511 and 0.5888 | 0.4824 and 0.4746 | 0.6948 and 0.6464 | 0.4609 and 0.4258 | 0.4885 and 0.4721 | 0.6056 and 0.5874 | 0.4704 and 0.4395 | 0.6449 and 0.6364 | 0.4678 and 0.4306 | 0.5387 and 0.5129 | 0.5418 and 0.5498 | 0.5335 and 0.4712 | 0.4461 and 0.4626 | 0.4478 and 0.464 | 0.4476 and 0.4512 | 0.5489 and 0.5171 | Array Heatmap value (peptide array binding signal) [21]: 0.3474 and 0.3417; Array Heatmap value (peptide array binding signal) [22]: 0.7409 and 0.7549; Array Heatmap value (peptide array binding signal) [23]: 0.2617 and 0.2453; Array Heatmap value (peptide array binding signal) [24]: 0.3508 and 0.3632; Array Heatmap value (peptide array binding signal) [25]: 0.4428 and 0.4192; Array Heatmap value (peptide array binding signal) [26]: 0.7163 and 0.602; Array Heatmap value (peptide array binding signal) [27]: 0.3702 and 0.357; Array Heatmap value (peptide array binding signal) [28]: 0.5507 and 0.5149; Array Heatmap value (peptide array binding signal) [29]: 0.238 and 0.2335; Array Heatmap value (peptide array binding signal) [30]: 0.3426 and 0.3388; Array Heatmap value (peptide array binding signal) [31]: 0.5178 and 0.5191 |
| H3K36ac (21-44): H3 21-44 | 0.6346 | 0.3615 | 0.3751 | 0.4894 | 0.6317 | 0.4959 | 0.7412 | 0.4745 | 0.4961 | 0.6078 | 0.4519 | 0.6899 | 0.4623 | 0.5602 | 0.5911 | 0.5459 | 0.4289 | 0.4731 | 0.4828 | 0.5601 | Array Heatmap value (peptide array binding signal) [21]: 0.3497; Array Heatmap value (peptide array binding signal) [22]: 0.8362; Array Heatmap value (peptide array binding signal) [23]: 0.2714; Array Heatmap value (peptide array binding signal) [24]: 0.3556; Array Heatmap value (peptide array binding signal) [25]: 0.4538; Array Heatmap value (peptide array binding signal) [26]: 0.7036; Array Heatmap value (peptide array binding signal) [27]: 0.3554; Array Heatmap value (peptide array binding signal) [28]: 0.5645; Array Heatmap value (peptide array binding signal) [29]: 0.2439; Array Heatmap value (peptide array binding signal) [30]: 0.3596; Array Heatmap value (peptide array binding signal) [31]: 0.5388 |
